In PMC9356275, “A quantitative high-throughput screen identifies compounds that lower expression of the SCA2-and ALS-associated gene ATXN2” (The Journal of Biological Chemistry, 2022):

How the values were obtained:
CMV-luc = test: Secondary assays: CMV-luc in SC cells, Bright-Glo; format: cell-based, human; details: minimum CMV-luc signal in SC cells over 12 doses; summary data
Method: (§1) Compounds were plated at 2× concentrations in phenol red–free DMEM in 25 μl in 384-well plates with each compound dose plated in triplicate. An equal volume of S2, H2, or SC cells (24,000 cells/well) suspended in phenol red–free DMEM with 10% fetal bovine serum and 1× penicillin/streptomycin were added. Cells were grown 24 h and then assayed first by using the CellTiter-Fluor reagent (20 μl) followed by the addition of Bright-Glo (65 μl) luciferase assay, using a multimode plate reader (Beckman; DT880). Values were reported as the mean ± SD with n = 3. IC50s were determined by the Hill coefficient method using an online tool (https://www.aatbio.com/tools/ic50-calculator).

ATXN2-luc [1] = test: Secondary assays: ATXN2-luc in S2 and H2 cells, 12 doses, Bright-Glo; format: cell-based, human; details: summary data; for IC50: ATXN2-luc luciferase assays in H2 and S2 cells, 12 doses plus a zero dose, read-out: Mean IC50; for min ATXN2-luc (%): minimum ATXN2-luc signal over 12 doses, H2 and S2 cells
Method: (§2) The values for H2 and S2 were used as replicates to calculate IC50s and to assess cell viability.
as §1

S2, H2 or SC cells = test: Secondary assays: multiplexed cell viability (CellTiter-Fluor)
Method: as §2, §1

[2] = as above; details: human
Method: as §2, §1

H2 and S1 cells = test: Paired MTT viability assay, average of H2 and S1 cells (1 and 10 uM); format: cell-based, human; parameters: H2&S1 ave MTT 1uM / H2&S1 ave MTT 10uM: unit not given here; details: for H2&S1 ave MTT 1uM: 1 uM compound; for H2&S1 ave MTT 10uM: 10 uM compound
Text: (§3) Supplement mmc2.xlsx, sheet "43 annotated compounds"

ATXN2-luc [3] = test: MSSR pilot screen: ATXN2-luc luciferase assay (Bright-Glo) in H2 cells, single 10 μM dose; format: cell-based, human; details: for SD from mean (ATXN2-luc, Z-score): H2 cells, single dose (title: 10 μM compound), overnight; for ¦Score/1SD¦: absolute score divided by 1SD (0.891 or 0.9)
ATXN2-luc [4] = test: MSSR hit retest: ATXN2-luc luciferase assay, average of H2 and S1 cells (1 and 10 uM); format: cell-based, human; parameters: H2&S1 ave luc 1uM / H2&S1 ave luc 10uM: scale not given here; details: average of H2 and S1 cells; for H2&S1 ave luc 1uM: 1 uM compound; for H2&S1 ave luc 10uM: head line r3 10uM, head line r4 20 uM compound
Text: as §3

ATXN2-luc [5] = test: MSSR hit retest / multiconcentration testing: ATXN2-luc luciferase assay in H2 cells (1 and 10 μM); format: cell-based, human; details: for H2&S1 ave luc 1uM: 1 uM compound; for H2&S1 ave luc 10uM: 10 uM compound
[6] = minimum viability, multiplexed CellTiter-Fluor, over 12 doses, summary data
[7] = pilot screen, H2 cells expressing ATXN2-luc, single dose printed as 10 μM compound
[8] = luciferase assay, average of H2 and S1 cells (both ATXN2-luc), rescreen from plated libraries
[9] = luciferase, average of H2 and S1 cells expressing ATXN2-luc, rescreen

Compound | min SC luc (%) (CMV-luc) | IC50 (ATXN2-luc [1]) | min ATXN2-luc (%) (ATXN2-luc [1]) | min viability (%) (S2, H2 or SC cells; [6]) | min viability (%) (S2, H2 or SC cells) | also measured
Clc1ccc(C[n+]2cc(-c3ccccc3)n3c2CCCCC3)c(Cl)c1.[Br-] [MLS000420216-02] | 72.1585% | 8080 nM | 56.4685% | 84.5162% |  | 
NC(=O)Nc1cc(-c2cccc(F)c2)sc1C(=O)N[C@H]1CCCNC1 [NCGC00242481-02, AZD7762] |  |  |  |  |  | viability at 24 h [2]: 78.1%
Cc1ccc2nc(NCCN)c3ncc(C)n3c2c1 [NCGC00165761-02] | 96.0167% | 4050 nM | 20.5589% |  | 77.5673% | 
CCC(=C/[C@H](C)C/C=C/C(C)=C/[C@@H](C)C(=O)[C@@H](C)[C@H](O)[C@@H](C)C/C(C)=C/C(=O)O)/C=C/[C@@H]1OC(=O)C=C[C@@H]1C [NCGC00162440-02] | 90.0621% | 48 nM | 28.333% | 65.4242% |  | 
CC1(C)CC(=O)c2c(C(F)(F)F)nn(-c3ccc(C(N)=O)c(NC4CCC(OC(=O)CN)CC4)c3)c2C1 (stereo not drawn) [NCGC00346640-01, PF 04929113] | 69.7843% | 88 nM | 19.9722% |  | 87.146% | 
CCNC(=O)c1noc(-c2cc(C(C)C)c(O)cc2O)c1-c1ccc(CN2CCOCC2)cc1 [NCGC00247878-01] | 63.2542% | 44 nM | 17.8831% | 94.6315% |  | 
O=C(O)c1ccc2c(c1)nc(Nc1cccc(Cl)c1)c1ccncc12 [NCGC00263192-02] | 93.7801% | 10200 nM | 45.6416% |  | 77.6315% | 
S=C(NCCCN1CCOCC1)N1CCN(c2nc(-c3ccccc3)cs2)CC1 [MLS000706289-02] | 79.3012% | 6850 nM | 61.6491% | 89.1129% |  | 
C[C@@H]1CCC/C=C\[C@H]2C[C@H](O)C[C@@H]2[C@H](O)/C=C\C(=O)O1 [NCGC00017254-02, (+)-Brefeldin A] | 84.381% | 2890 nM | 44.7226% | 72.9816% |  | 
Cn1cc(-c2cnn3c(N)c(Br)c([C@H]4CCCNC4)nc23)cn1 [NCGC00346653-01] | 91.5137% | 388 nM | 25.4941% | 87.0431% |  | 
CN(c1ncccc1CNc1nc(Nc2ccc3c(c2)CC(=O)N3)ncc1C(F)(F)F)S(C)(=O)=O [NCGC00242495-01, PF-00562271] | 98.3015% | 2320 nM | 15.5052% | 64.5946% |  | 
Nc1ncnc2c1c(-c1cnc3[nH]ccc3c1)nn2C1CCCC1 [NCGC00346619-01, PP121] | 78.0969% | 4160 nM | 27.4759% | 50.3878% |  | 
CN[C@@H]1CN(c2ccc3c(=O)c(C(=O)O)cn(-c4nccs4)c3n2)C[C@@H]1OC [NCGC00346437-01] | 64.0102% | 488 nM | 15.1045% | 71.6056% |  | 
CCNC(=O)c1cc2c(-c3cc(OCCN4CCCC4)c(Cl)cc3Cl)nc(N)nc2s1 [NCGC00247879-01, NVP-BEP800] | 85.4541% | 1790 nM | 22.6428% |  | 89.936% | 
CCc1c(O)cc(O)c(C(=O)c2ccc(OCCN3CCOCC3)c(OC)c2)c1CC(=O)N(CCOC)CCOC [NCGC00346685-01, KW-2478] | 105.888% | 587 nM | 23.9372% |  | 97.6731% | 
Oc1ccc(-c2ccc(-c3cc(Nc4cccc(CNC5CC5)c4)n[nH]3)cc2)c(O)c1 [NCGC00346954-01] | 54.3112% | 545 nM | 20.2623% |  | 61.7259% | 
O=C(Nc1cccc(Nc2ncc(Br)c(NCCc3cnc[nH]3)n2)c1)N1CCCC1 [NCGC00346687-01, BX-912] | 100.351% | 8890 nM | 54.9395% |  | 84.397% | 
Cc1ccc(-c2ncn(-c3ccc(Nc4nccc(-c5cccc(N6CCOCC6)c5)n4)cc3)n2)cn1 [NCGC00263146-01] | 82.9006% | 1300 nM | 15.6493% |  | 65.3662% | 
O=c1[nH]c2ccc(Cl)cc2c(N[C@@H]2CN3CCC2CC3)c1-c1nc2ccccc2[nH]1 [NCGC00346626-01, CHIR-124] | 69.3978% | 219 nM | 17.9767% | 75.0552% |  | 
C=CCNc1c(O)cc2c(O)c1C[C@@H](C)C[C@H](OC)[C@@H](O)[C@@H](C)C=C(C)[C@H](OC(N)=O)[C@@H](OC)C=CC=C(C)C(=O)N2 [NCGC00346438-01] | 94.9947% | 546 nM | 24.2069% |  | 91.4914% | 
CO[C@H]1[C@@H](O)[C@@H](C)O[C@@H](O[C@H]2CC[C@]3(C)[C@H]4CC[C@]5(C)[C@@H](C6=CC(=O)OC6)CC[C@]5(O)[C@@H]4CC[C@]3(O)C2)[C@@H]1O [EMICYMARIN] |  |  |  |  |  | H2&S1 ave MTT 1uM (H2 and S1 cells): 111.923; H2&S1 ave MTT 10uM (H2 and S1 cells): 53.425; SD from mean (ATXN2-luc, Z-score) (ATXN2-luc [3]): -3.080 SD; SD from mean (pilot screen) (ATXN2-luc [3]; pilot screen): -3.080 SD; SD from mean (pilot screen) (ATXN2-luc [3]; [7]): -3.080; ¦Score/1SD¦ (ATXN2-luc [3]; pilot screen): 3.42; H2&S1 ave luc 1uM (ATXN2-luc [4]): 115; H2&S1 ave luc 10uM (ATXN2-luc [4]): 31; H2&S1 ave luc 1uM (ATXN2-luc [5]; [8]): 115; H2&S1 ave luc 10uM (ATXN2-luc [5]; [8]): 31
COc1ccc(CCCOC(Cn2ccnc2)c2ccc(OC)cc2)cc1 (stereo not drawn) [SKF-96365] |  |  |  |  |  | H2&S1 ave MTT 1uM (H2 and S1 cells): 115.609; H2&S1 ave MTT 10uM (H2 and S1 cells): 90.0391; SD from mean (ATXN2-luc, Z-score) (ATXN2-luc [3]): -2.721 SD; SD from mean (pilot screen) (ATXN2-luc [3]; pilot screen): -2.721 SD; SD from mean (pilot screen) (ATXN2-luc [3]; [7]): -2.721; ¦Score/1SD¦ (ATXN2-luc [3]; pilot screen): 3.05; H2&S1 ave luc 1uM (ATXN2-luc [4]): 104; H2&S1 ave luc 10uM (ATXN2-luc [4]): 57; H2&S1 ave luc 1uM (ATXN2-luc [5]; [8]): 104; H2&S1 ave luc 10uM (ATXN2-luc [5]; [8]): 57
CS(=O)(=O)Nc1ccc(Cc2noc(-c3ccc4[nH]cc(CCN)c4c3)n2)cc1 [L-694 247] |  |  |  |  |  | H2&S1 ave MTT 1uM (H2 and S1 cells): 107.272; H2&S1 ave MTT 10uM (H2 and S1 cells): 16.3621; SD from mean (ATXN2-luc, Z-score) (ATXN2-luc [3]): -3.156 SD; SD from mean (pilot screen) (ATXN2-luc [3]; pilot screen): -3.156 SD; SD from mean (pilot screen) (ATXN2-luc [3]; [7]): -3.156; ¦Score/1SD¦ (ATXN2-luc [3]; pilot screen): 3.51; H2&S1 ave luc 1uM (ATXN2-luc [4]): 110; H2&S1 ave luc 10uM (ATXN2-luc [4]): 6; H2&S1 ave luc 1uM (ATXN2-luc [5]; [8]): 110; H2&S1 ave luc 10uM (ATXN2-luc [5]; [8]): 6
C[C@@H](Oc1ccc2[nH]nc(C=Cc3cnn(CCO)c3)c2c1)c1c(Cl)cncc1Cl [NCGC00346459-01] | 64.272% | 1390 nM | 15.2562% | 66.1226% |  | 
C[C@@]12OC(=O)[C@]1([C@@H](O)[C@@H]1C=CCCC1)NC(=O)[C@H]2CCCl [NCGC00344630-01] | 96.8804% | 1110 nM | 16.5036% | 75.9573% |  | 
COc1c(C)cnc(Cn2cnc3c(Cl)nc(N)nc32)c1C [NCGC00247877-01] | 68.1668% | 329 nM | 17.8512% |  | 91.8481% | 
CC[C@H]1CN2CCc3cc(OC)c(OC)cc3[C@@H]2C[C@@H]1C[C@H]1NCCc2cc(O)c(OC)cc21.Cl.Cl.O.O.O.O.O.O.O [Cephaeline dihydrochloride heptahydrate] |  |  |  |  |  | H2&S1 ave MTT 1uM (H2 and S1 cells): 59.1374; H2&S1 ave MTT 10uM (H2 and S1 cells): 62.1025; SD from mean (ATXN2-luc, Z-score) (ATXN2-luc [3]): -4.055 SD; SD from mean (pilot screen) (ATXN2-luc [3]; pilot screen): -4.055 SD; SD from mean (pilot screen) (ATXN2-luc [3]; pilot screen at 10 µM compound, H2 cells expressing ATXN2-luc): -4.055; ¦Score/1SD¦ (ATXN2-luc [3]; pilot screen): 4.55; H2&S1 ave luc 1uM (ATXN2-luc [4]): 16; H2&S1 ave luc 10uM (ATXN2-luc [4]): 17; H2&S1 ave luc 1uM (ATXN2-luc [5]; [9]): 16; H2&S1 ave luc 10uM (ATXN2-luc [5]; [9]): 17
Cc1cccc(Nc2nc(N[C@@H]3CCCC[C@H]3N)ncc2C(N)=O)c1 [NCGC00253909-01] | 86.8204% | 25400 nM | 64.2535% |  | 94.6197% | 
CC(C)c1cc(-c2n[nH]c(=O)n2-c2ccc3c(ccn3C)c2)c(O)cc1O [NCGC00346678-01] | 55.4123% | 30 nM | 17.7351% | 77.8152% |  | 
Cc1cnc(NC(=O)CN2CCN(c3ccccn3)CC2)s1 [MLS000035284-02] | 4.094% | 12900 nM | 38.5658% | 76.8459% |  | 
